According to patent publication US20220211478A1, “SURGICAL SYSTEM AND METHODS OF USE” (priority 2021, published 2022):

Columns and labels:
myofibroblast formation = conditions: capsular contracture with breast implants; Ajmal et al. (2003); cited from earlier work
fibrinolysis = experiment: prevention / reversal of fibrinolysis; conditions: relative to doses of the non-GLP acute porcine study
From the text: (§1) However, in some embodiments, however, higher doses of tranexamic acid are used for topical applications to account for tranexamic acid being widely distributed throughout the extracellular and intracellular compartments when given preoperatively.

[1] = in vivo
From the text: as §1

Row | time to reach plasma concentrations [1] [min] | Compound | effect on myofibroblast formation (myofibroblast formation) | dose effective in reversing fibrinolysis (fibrinolysis)
1 |  | O=S(=O)([O-])CCS.[Na+] [MESNA, sodium 2-mercaptoethane sulfonate] | diminish myofibroblast formation | 
2 | 5 to 15 | NC[C@H]1CC[C@H](C(=O)O)CC1 [tranexamic acid, trans-4-(aminomethyl)cyclohexanecarboxylic acid] |  | one tenth of the doses used in the non-GLP acute porcine study
